# Experimental data: ChEMBL document CHEMBL1154536, “Optimization of 4,6-bis-anilino-1H-pyrrolo[2,3-d]pyrimidine IGF-1R tyrosine kinase inhibitors towards JNK selectivity” (Bioorg Med Chem Lett, 2009)
# Assays:
# [1] = target: T1, Insulin-like growth factor 1 receptor (Homo sapiens, UniProt P08069); assay: Inhibition of IGF-1R
# [2] = target: Mitogen-activated protein kinase 8 (Homo sapiens, UniProt P45983); assay: Inhibition of His-tagged JNK1
# [3] = target: T1, Insulin-like growth factor 1 receptor; assay: Inhibition of phospho IGFR1 by cellular assay
# [4] = Clearance in rat at 2.5 mg/kg, iv and […] mg/kg, po; format: ADME, organism-based; settings: in vivo
# Rattus norvegicus [5] = assay: Dose normalized AUC (0 to 8 hrs) in rat at 13 mg/kg, po; format: ADME, organism-based; set-up: time < 8 hr, dose 13 mg/kg, route oral; settings: in vivo
# [6] = Cmax in rat at 13 mg/kg, po; format: ADME, organism-based; set-up: dose 13 mg/kg, route oral; settings: in vivo
# [7] = Oral bioavailability in rat at 13 mg/kg, po; format: ADME, organism-based; settings: in vivo
# [8] = Clearance in rat at 2.6 mg/kg, iv and […] mg/kg, po; format: ADME, organism-based; settings: in vivo
# [9] = target: T1, Insulin-like growth factor 1 receptor; assay: Inhibition of phospho IGFR1 by cellular assay in presence of 2%HSA
# [10] = Clearance in rat at 2.5 mg/kg, iv and 10 mg/kg, po; format: ADME, organism-based; settings: in vivo
# Rattus norvegicus [11] = assay: Dose normalized AUC (0 to 8 hrs) in rat at 10 mg/kg, po; format: ADME, organism-based; set-up: time < 8 hr, dose 10 mg/kg, route oral; settings: in vivo
# [12] = Cmax in rat at 10 mg/kg, po; format: ADME, organism-based; set-up: dose 10 mg/kg, route oral; settings: in vivo
# [13] = Oral bioavailability in rat at 10 mg/kg, po; format: ADME, organism-based; settings: in vivo
# [14] = target: Mitogen-activated protein kinase 10 (Homo sapiens, UniProt P53779); assay: Inhibition of human His-tagged JNK3
# [15] = target: ALK tyrosine kinase receptor (Homo sapiens, UniProt Q9UM73); assay: Inhibition of ALK
# Insulin receptor = Insulin receptor (Homo sapiens, UniProt P06213); assay: Inhibition of IR
# Rattus norvegicus [16] = assay: Dose normalized AUC (0 to 8 hrs) in rat at 9 mg/kg, po; format: ADME, organism-based; set-up: time < 8 hr, dose 9 mg/kg, route oral; settings: in vivo
# [17] = Cmax in rat at 9 mg/kg, po; format: ADME, organism-based; set-up: dose 9 mg/kg, route oral; settings: in vivo
# Mitogen-activated protein kinase 10, sequence (P53779 whole entry): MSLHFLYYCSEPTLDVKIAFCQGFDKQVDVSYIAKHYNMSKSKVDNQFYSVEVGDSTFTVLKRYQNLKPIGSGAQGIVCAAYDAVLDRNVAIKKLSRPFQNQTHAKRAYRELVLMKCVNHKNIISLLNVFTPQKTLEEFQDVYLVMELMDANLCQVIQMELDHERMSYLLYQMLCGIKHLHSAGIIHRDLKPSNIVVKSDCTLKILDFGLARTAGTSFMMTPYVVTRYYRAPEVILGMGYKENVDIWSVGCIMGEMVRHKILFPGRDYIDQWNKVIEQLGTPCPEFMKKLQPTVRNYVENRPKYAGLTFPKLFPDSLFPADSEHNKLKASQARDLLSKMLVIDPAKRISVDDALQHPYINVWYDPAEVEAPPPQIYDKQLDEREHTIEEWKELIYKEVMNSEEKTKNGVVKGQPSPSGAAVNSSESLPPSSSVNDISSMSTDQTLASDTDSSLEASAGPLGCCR
# Mitogen-activated protein kinase 8, sequence (P45983 whole entry): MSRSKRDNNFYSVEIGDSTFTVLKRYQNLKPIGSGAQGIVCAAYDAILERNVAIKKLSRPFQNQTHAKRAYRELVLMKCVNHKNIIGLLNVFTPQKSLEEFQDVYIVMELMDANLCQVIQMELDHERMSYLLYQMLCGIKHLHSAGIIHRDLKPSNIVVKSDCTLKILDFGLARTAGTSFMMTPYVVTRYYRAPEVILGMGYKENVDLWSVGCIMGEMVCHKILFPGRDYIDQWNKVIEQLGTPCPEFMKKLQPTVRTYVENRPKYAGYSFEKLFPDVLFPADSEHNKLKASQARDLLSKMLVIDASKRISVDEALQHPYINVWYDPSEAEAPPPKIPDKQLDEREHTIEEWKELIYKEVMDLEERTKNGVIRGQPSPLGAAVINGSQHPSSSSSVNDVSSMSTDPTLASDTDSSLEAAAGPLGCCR
# T1 sequence (P08069 31-736 limits assumed): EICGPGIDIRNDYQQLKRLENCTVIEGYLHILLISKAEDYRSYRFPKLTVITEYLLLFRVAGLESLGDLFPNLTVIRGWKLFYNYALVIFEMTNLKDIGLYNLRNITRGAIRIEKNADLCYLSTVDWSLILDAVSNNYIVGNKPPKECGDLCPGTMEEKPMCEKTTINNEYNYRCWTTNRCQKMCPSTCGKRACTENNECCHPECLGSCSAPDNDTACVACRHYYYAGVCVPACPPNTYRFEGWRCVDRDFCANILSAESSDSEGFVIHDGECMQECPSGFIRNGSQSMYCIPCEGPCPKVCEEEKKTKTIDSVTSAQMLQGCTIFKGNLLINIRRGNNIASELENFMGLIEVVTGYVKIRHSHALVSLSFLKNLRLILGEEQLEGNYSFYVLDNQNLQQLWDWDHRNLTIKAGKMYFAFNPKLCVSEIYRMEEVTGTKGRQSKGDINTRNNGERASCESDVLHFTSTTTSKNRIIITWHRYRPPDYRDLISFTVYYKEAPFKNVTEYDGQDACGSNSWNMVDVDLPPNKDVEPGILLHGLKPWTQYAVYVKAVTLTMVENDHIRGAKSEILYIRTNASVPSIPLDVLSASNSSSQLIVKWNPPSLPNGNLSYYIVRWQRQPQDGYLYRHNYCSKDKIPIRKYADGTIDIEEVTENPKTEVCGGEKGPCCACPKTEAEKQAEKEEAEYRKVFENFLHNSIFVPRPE
# T1 sequence (P08069 741-1367 limits assumed): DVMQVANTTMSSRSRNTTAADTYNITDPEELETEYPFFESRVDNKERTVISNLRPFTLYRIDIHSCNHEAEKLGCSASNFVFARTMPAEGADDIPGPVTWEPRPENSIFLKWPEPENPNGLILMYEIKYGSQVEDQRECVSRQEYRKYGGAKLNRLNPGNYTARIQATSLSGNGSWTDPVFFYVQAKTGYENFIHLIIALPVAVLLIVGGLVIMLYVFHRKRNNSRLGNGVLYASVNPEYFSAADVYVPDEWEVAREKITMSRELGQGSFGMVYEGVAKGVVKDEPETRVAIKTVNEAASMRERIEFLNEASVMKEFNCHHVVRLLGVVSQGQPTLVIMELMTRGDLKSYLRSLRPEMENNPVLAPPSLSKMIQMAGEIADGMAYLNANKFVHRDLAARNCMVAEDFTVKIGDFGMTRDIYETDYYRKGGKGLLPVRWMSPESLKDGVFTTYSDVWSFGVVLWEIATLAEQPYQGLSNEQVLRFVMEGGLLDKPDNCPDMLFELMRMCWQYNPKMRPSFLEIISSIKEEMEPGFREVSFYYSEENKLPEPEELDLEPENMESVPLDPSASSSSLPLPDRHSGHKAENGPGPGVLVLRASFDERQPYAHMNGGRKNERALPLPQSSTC
# ALK tyrosine kinase receptor, sequence (Q9UM73 whole entry): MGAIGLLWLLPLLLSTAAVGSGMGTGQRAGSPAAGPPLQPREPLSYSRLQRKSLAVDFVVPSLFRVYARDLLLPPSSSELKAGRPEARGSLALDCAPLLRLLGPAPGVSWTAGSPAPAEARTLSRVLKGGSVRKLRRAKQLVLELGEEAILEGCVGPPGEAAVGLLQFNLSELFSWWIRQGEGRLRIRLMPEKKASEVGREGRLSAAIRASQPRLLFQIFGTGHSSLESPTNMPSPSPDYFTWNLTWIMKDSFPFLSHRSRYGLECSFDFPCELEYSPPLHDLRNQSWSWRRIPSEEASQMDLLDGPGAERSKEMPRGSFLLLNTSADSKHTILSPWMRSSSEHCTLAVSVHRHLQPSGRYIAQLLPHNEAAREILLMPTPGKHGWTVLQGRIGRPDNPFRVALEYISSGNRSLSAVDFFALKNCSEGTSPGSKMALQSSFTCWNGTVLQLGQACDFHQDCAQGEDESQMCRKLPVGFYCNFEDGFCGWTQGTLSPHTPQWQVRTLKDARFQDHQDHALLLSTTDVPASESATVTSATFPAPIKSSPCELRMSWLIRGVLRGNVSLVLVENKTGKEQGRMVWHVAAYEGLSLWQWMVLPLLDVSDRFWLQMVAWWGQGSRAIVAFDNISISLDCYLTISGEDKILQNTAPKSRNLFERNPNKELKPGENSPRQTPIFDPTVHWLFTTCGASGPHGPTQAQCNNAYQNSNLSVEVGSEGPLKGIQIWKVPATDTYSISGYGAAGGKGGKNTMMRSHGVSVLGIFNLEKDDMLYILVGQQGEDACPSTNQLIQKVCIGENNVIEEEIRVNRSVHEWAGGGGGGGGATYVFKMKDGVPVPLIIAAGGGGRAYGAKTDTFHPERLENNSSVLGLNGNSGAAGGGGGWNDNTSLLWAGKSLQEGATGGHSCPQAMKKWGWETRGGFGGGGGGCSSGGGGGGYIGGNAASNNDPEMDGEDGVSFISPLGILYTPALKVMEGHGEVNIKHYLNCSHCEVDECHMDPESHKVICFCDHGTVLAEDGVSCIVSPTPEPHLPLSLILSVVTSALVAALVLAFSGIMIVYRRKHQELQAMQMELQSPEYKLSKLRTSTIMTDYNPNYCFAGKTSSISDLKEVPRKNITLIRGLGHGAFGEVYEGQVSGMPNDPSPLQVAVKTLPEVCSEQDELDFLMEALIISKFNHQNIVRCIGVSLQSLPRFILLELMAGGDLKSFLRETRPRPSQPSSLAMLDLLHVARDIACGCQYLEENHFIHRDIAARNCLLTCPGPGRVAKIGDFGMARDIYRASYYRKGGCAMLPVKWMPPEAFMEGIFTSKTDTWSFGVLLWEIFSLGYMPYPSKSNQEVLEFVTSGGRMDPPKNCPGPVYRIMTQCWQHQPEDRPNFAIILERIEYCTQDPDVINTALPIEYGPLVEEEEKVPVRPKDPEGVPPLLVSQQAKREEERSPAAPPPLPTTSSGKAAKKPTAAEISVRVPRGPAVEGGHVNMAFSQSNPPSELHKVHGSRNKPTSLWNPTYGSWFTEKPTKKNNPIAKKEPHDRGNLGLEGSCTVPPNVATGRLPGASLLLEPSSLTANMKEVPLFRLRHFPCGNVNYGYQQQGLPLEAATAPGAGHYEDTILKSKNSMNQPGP
SMILES,IC50 [1] [nM],IC50 [2] [nM],IC50 [3] [nM],further results
COc1cc2c(cc1Nc1nc(Nc3cccc(F)c3C(N)=O)c3cc[nH]c3n1)N(C(=O)CCN1CCN(C(C)C)CC1)CC2,4,1590,651,
COc1ccc(OCCCN(C)C)cc1Nc1nc(Nc2cccc(F)c2C(N)=O)c2cc[nH]c2n1,8,631,81,clearance [4]: 112 mL/min/kg; AUC (Rattus norvegicus [5]): 85 ng·h/mL/mg/kg; Cmax [6]: 192 ng/mL; bioavailability [7]: 60%
COc1ccc(CCCN(C)C)cc1Nc1nc(Nc2cccc(F)c2C(N)=O)c2cc[nH]c2n1,13,5010,212,
COc1cc2c(cc1Nc1nc(Nc3cccc(F)c3C(N)=O)c3cc[nH]c3n1)N(CCN(C)C)CC2,40,100,794,
CCCN1CCC(Oc2ccc(OC)c(Nc3nc(Nc4cccc(F)c4C(N)=O)c4cc[nH]c4n3)c2)CC1,6,1260,929,
CNC(=O)c1c(F)cccc1Nc1nc(Nc2cc3c(cc2OC)CCN3C(=O)CN(C)C)nc2[nH]ccc12,,,,clearance [10]: 73 mL/min/kg; AUC (Rattus norvegicus [11]): 210 ng·h/mL/mg/kg; Cmax [12]: 365 ng/mL; bioavailability [13]: 98%
COc1cc(C)c(N2CCN(C(C)C)CC2)cc1Nc1nc(Nc2cccc(F)c2C(N)=O)c2cc[nH]c2n1,,3890,,IC50 [14]: 6310 nM
COc1cc2c(cc1Nc1nc(Nc3cccc(F)c3C(N)=O)c3cc[nH]c3n1)N(C(=O)Cn1ccnc1)CC2,32,631,7760,
COc1cc2c(cc1Nc1nc(Nc3cccc(F)c3C(N)=O)c3cc[nH]c3n1)N(C(=O)CCN(C)C)CCC2,10,7940,209,
COc1cc2c(cc1Nc1nc(Nc3cccc(F)c3C(N)=O)c3cc[nH]c3n1)N(C(=O)CN1CCCCC1)CCC2,1,2510,11,
COc1ccc(N(C)C(=O)CN(C)C)cc1Nc1nc(Nc2cccc(F)c2C(N)=O)c2cc[nH]c2n1,50,10000,377,
COc1ccc(NC(=O)CN(C)C)cc1Nc1nc(Nc2cccc(F)c2C(N)=O)c2cc[nH]c2n1,1,3160,28,
COc1cc2c(cc1Nc1nc(Nc3cccc(F)c3C(N)=O)c3cc[nH]c3n1)N(C(=O)CN1CCOCC1)CC2,13,126,72,
COc1cc(N2CCN(C(C)C)CC2)ccc1Nc1nc(Nc2cccc(F)c2C(N)=O)c2cc[nH]c2n1,,13,,IC50 [15]: 0.5 nM; IC50 (Insulin receptor): 1.6 nM; IC50 [14]: 100 nM
COc1cc2c(cc1Nc1nc(Nc3cccc(F)c3C(N)=O)c3cc[nH]c3n1)N(C(=O)CCN1CCOCC1)CC2,6,251,298,
COc1cc(C)c(CCCN(C)C)cc1Nc1nc(Nc2cccc(F)c2C(N)=O)c2cc[nH]c2n1,13,501,840,
COc1ccc(N2CCN(C(C)C)CC2)cc1Nc1nc(Nc2cccc(F)c2C(N)=O)c2cc[nH]c2n1,,3160,201,IC50 [14]: 5010 nM; AUC (Rattus norvegicus [16]): 133 ng·h/mL/mg/kg; Cmax [17]: 233 ng/mL
COc1cc2c(cc1Nc1nc(Nc3cccc(F)c3C(N)=O)c3cc[nH]c3n1)N(C(=O)CN(C)C)CCC2,1,6310,16,
COc1cc2c(cc1Nc1nc(Nc3cccc(F)c3C(N)=O)c3cc[nH]c3n1)N(C(=O)CN1CCCC1)CC2,1,1260,24,
COc1cc(Cl)c(OCCCN(C)C)cc1Nc1nc(Nc2cccc(F)c2C(N)=O)c2cc[nH]c2n1,13,1260,895,
CCCN1CCC(Oc2cc(Nc3nc(Nc4cccc(F)c4C(N)=O)c4cc[nH]c4n3)c(OC)cc2Cl)CC1 [GSK-1713088A],25,3980,5370,
COc1cc2c(cc1Nc1nc(Nc3cccc(F)c3C(N)=O)c3cc[nH]c3n1)N(C(=O)CN1CCN(C(C)C)CC1)CC2 [GSK-1751853A],32,1590,376,
COc1cc(C)c(NC(=O)CN(C)C)cc1Nc1nc(Nc2cccc(F)c2C(N)=O)c2cc[nH]c2n1 [GSK-2213727A],0.5,2000,38,
COc1cc(C)c(N(C)C(=O)CN(C)C)cc1Nc1nc(Nc2cccc(F)c2C(N)=O)c2cc[nH]c2n1 [GSK-2219385A],63,10000,1730,

# Further lines, with some results ahead:
IC50 [1] [nM],IC50 [2] [nM],IC50 [3] [nM],SMILES,further results
25,7940,1980,COc1cc2c(cc1Nc1nc(Nc3cccc(F)c3C(N)=O)c3cc[nH]c3n1)N(C(C)=O)CCC2,
6,126,278,COc1cc2c(cc1Nc1nc(Nc3cccc(F)c3C(N)=O)c3cc[nH]c3n1)N(C(C)=O)CC2,
2,2000,79,CNCC(=O)N1CCc2cc(OC)c(Nc3nc(Nc4cccc(F)c4C(N)=O)c4cc[nH]c4n3)cc21,
,1590,56,COc1cc2c(cc1Nc1nc(Nc3cccc(F)c3C(N)=O)c3cc[nH]c3n1)N(C(=O)CN(C)C)CC2,clearance [8]: 48 mL/min/kg; AUC (Rattus norvegicus [5]): 190 ng·h/mL/mg/kg; Cmax [6]: 455 ng/mL; bioavailability [7]: 61%; IC50 [9]: 487 nM
3,3160,19,CCN(C)CC(=O)N1CCc2cc(OC)c(Nc3nc(Nc4cccc(F)c4C(N)=O)c4cc[nH]c4n3)cc21,
50,794,877,COc1cc2c(cc1Nc1nc(Nc3cccc(F)c3C(N)=O)c3cc[nH]c3n1)N(C(=O)CN(C)OC)CC2,
2,1000,85,CCN(CC)CC(=O)N1CCc2cc(OC)c(Nc3nc(Nc4cccc(F)c4C(N)=O)c4cc[nH]c4n3)cc21,
1,2000,128,COc1cc2c(cc1Nc1nc(Nc3cccc(F)c3C(N)=O)c3cc[nH]c3n1)N(C(=O)CN1CCC1)CC2,
8,794,191,COc1cc2c(cc1Nc1nc(Nc3cccc(F)c3C(N)=O)c3cc[nH]c3n1)N(C(=O)CCN(C)C)CC2,
4,1000,765,COc1cc2c(cc1Nc1nc(Nc3cccc(F)c3C(N)=O)c3cc[nH]c3n1)N(C(=O)CN)CC2,
